Where “and” joins values, the source holds several entries; their conditions need not be identical. Equal values may be shown once.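 1) Cells in 96-well plates. 2) Compound, 48 h, 5 concentrations. 3) Linear interpolation between surrounding doses. 4) Unreached endpoint = highest concentration. Here, GI50 denotes the concentration required for 50% inhibition of growth. TGI denotes the concentration required for complete inhibition of growth.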

Some test systems named below: A498 renal; HT29 colon; KM12 colon; OVCAR-4 ovarian; OVCAR-8 ovarian; SF-268 CNS; TK-10 renal; U251 CNS; UACC-62 melanoma.
What all share (assay): NCI-60 cell line screen, 48 h

Turning to `O=C(NCC(=O)N1CCOC1=O)OCc1ccccc1`, the TGI in the assay with A498 renal, in the assay with HT29 colon, with KM12 colon, in the assay on OVCAR-4 ovarian, in the assay on OVCAR-8 ovarian and with SF-268 CNS was greater than 100 µM throughout. The TGI in the assay with TK-10 renal, with U251 CNS and in the assay on UACC-62 melanoma was greater than 100 µM in each case.
For `COc1cccc2c1[C@H]1CO[C@H]3C4C[C@H](C(=O)O)C([C@@H](C2)N13)N4C` (stereo partly drawn), the GI50 is 5.21 µM and 0.685 µM in the assay with KM12 colon; 0.99 µM in the assay on OVCAR-4 ovarian; 2.81 µM and 0.888 µM with OVCAR-8 ovarian; 1.13 µM in the assay on SF-268 CNS; 0.5 µM in the assay with U251 CNS; 0.0475 µM with UACC-62 melanoma. Moreover, the TGI in the assay on KM12 colon is 1.64 µM; with OVCAR-4 ovarian, 8.21 µM and 10.5 µM; with OVCAR-8 ovarian it was 7.05 µM and 34.4 µM; in the assay with SF-268 CNS, 7.43 µM and > 32 µM; with TK-10 renal it was 5.71 µM; in the assay with U251 CNS it was 5.52 µM.
Regarding `COCCOCOC(C)(C)[C@H](CCOC(C)=O)O[Si](c1ccccc1)(c1ccccc1)C(C)(C)C`, the TGI with A498 renal is 68.4 µM; with HT29 colon, 28.5 µM; in the assay with KM12 colon it was greater than 100 µM; with OVCAR-4 ovarian, greater than 100 µM; in the assay with OVCAR-8 ovarian, 75.2 µM; with SF-268 CNS it was greater than 100 µM. The figures for the TGI in the assay on TK-10 renal, with U251 CNS and with UACC-62 melanoma were 87.1 µM, 30.6 µM and 55.3 µM, respectively.
`O=C(O)[C@@H](NS(=O)(=O)c1ccc2ccccc2c1)c1ccccc1`: the TGI with A498 renal, in the assay on HT29 colon, in the assay with OVCAR-4 ovarian, in the assay on SF-268 CNS, in the assay on U251 CNS and in the assay on UACC-62 melanoma was greater than 100 µM in each case.
For `Cc1ccc(NC(=O)CC2SC(N)=NC2=O)cc1C` (stereo not drawn), the TGI in the assay with HT29 colon, with KM12 colon, in the assay with OVCAR-4 ovarian, with OVCAR-8 ovarian, with SF-268 CNS and in the assay on TK-10 renal was greater than 100 µM throughout. Further, the TGI with U251 CNS and with UACC-62 melanoma was greater than 100 µM each time.
As to `Cc1ccc(Sc2oc(-c3ccc(C)cc3)nc2[P+](c2ccccc2)(c2ccccc2)c2ccccc2)cc1`, the GI50 with A498 renal was 0.152 µM; in the assay on HT29 colon it was 0.294 µM; in the assay on KM12 colon it was 0.338 µM; with OVCAR-4 ovarian, 0.28 µM; in the assay on OVCAR-8 ovarian it was 0.345 µM; in the assay on SF-268 CNS, 0.399 µM. The GI50 is 0.447 µM in the assay with TK-10 renal, 0.303 µM with U251 CNS and 0.398 µM with UACC-62 melanoma. Moreover, the TGI in the assay with A498 renal turned out to be 0.842 µM; in the assay with HT29 colon it was 1.15 µM; in the assay with KM12 colon it was 1.3 µM; with OVCAR-4 ovarian it was 1.43 µM; in the assay with OVCAR-8 ovarian, 1.65 µM; with SF-268 CNS, 1.66 µM. Besides, the TGI was 1.85 µM with TK-10 renal, 1.41 µM in the assay with U251 CNS and 1.5 µM with UACC-62 melanoma.
Take `O=C1/C(=C/c2cccc(Br)c2)COc2ccc(O)c(O)c21`: the GI50 in the assay on A498 renal is 2.01 µM; with HT29 colon, 1.83 µM; in the assay on KM12 colon it was 1.48 µM; in the assay on OVCAR-4 ovarian, 1.51 µM; with OVCAR-8 ovarian, 1.06 µM; with SF-268 CNS, 1.63 µM. Also, the results for the GI50 in the assay with TK-10 renal, in the assay with U251 CNS and in the assay with UACC-62 melanoma were 1.7 µM, 1.1 µM and 1.64 µM, respectively. For the same compound, the TGI in the assay with A498 renal worked out at 4.74 µM; in the assay with HT29 colon it was 3.62 µM; in the assay with KM12 colon, 3.64 µM; in the assay with OVCAR-4 ovarian, 2.85 µM; with OVCAR-8 ovarian, 2.86 µM; with SF-268 CNS, 4.08 µM. The figures for the TGI in the assay with TK-10 renal, in the assay with U251 CNS and in the assay on UACC-62 melanoma were 3.1 µM, 2.29 µM and 3.14 µM, respectively.
With `CC(=O)NNc1nc(C)c(C(=O)/C=C/c2ccc(/C=C/C(=O)c3sc(NNC(C)=O)nc3C)cc2)s1`, the TGI with HT29 colon, in the assay on KM12 colon, with OVCAR-4 ovarian, with OVCAR-8 ovarian, in the assay on SF-268 CNS and with TK-10 renal was greater than 100 µM each time. Further, the TGI in the assay on U251 CNS and in the assay with UACC-62 melanoma was greater than 100 µM each time.
Turning to `CN1CCc2c1nc(-c1cccnc1)c1c2N(C)CC1`, the TGI with A498 renal, with HT29 colon, in the assay with KM12 colon, in the assay with OVCAR-4 ovarian, in the assay on OVCAR-8 ovarian and in the assay on SF-268 CNS was greater than 100 µM throughout. Also, the TGI in the assay on TK-10 renal, in the assay on U251 CNS and in the assay with UACC-62 melanoma was greater than 100 µM throughout.
Regarding `O=C(N/C(=C\c1cc(Cl)ccc1Cl)c1nc2ccc(Cl)cc2[nH]1)c1ccccc1`, the TGI in the assay with A498 renal came out at 41.9 µM; with HT29 colon, 30.9 µM; in the assay on KM12 colon it was 29.4 µM; in the assay on OVCAR-4 ovarian, 68.6 µM; in the assay on OVCAR-8 ovarian it was 31.6 µM; in the assay on SF-268 CNS it was 28.1 µM. For the same compound, the TGI in the assay with TK-10 renal came to 10.9 µM; in the assay with U251 CNS it was 30.1 µM; with UACC-62 melanoma, 24.8 µM.
`NC(=O)C12CC3CC(CC(Br)(C3)C1)C2`: the TGI with A498 renal, with HT29 colon, in the assay with KM12 colon, in the assay on OVCAR-4 ovarian, with OVCAR-8 ovarian and with SF-268 CNS was greater than 100 µM each time. Also, the TGI in the assay with TK-10 renal, in the assay on U251 CNS and in the assay with UACC-62 melanoma was greater than 100 µM each time.
For the compound `COC(=O)C#CCC1CCCC1C1SCCS1` (stereo not drawn), the TGI with A498 renal, with HT29 colon, with KM12 colon, with OVCAR-4 ovarian, in the assay on OVCAR-8 ovarian and in the assay with SF-268 CNS was greater than 100 µM throughout. The TGI in the assay on TK-10 renal, in the assay on U251 CNS and with UACC-62 melanoma was greater than 100 µM in each case.
With `CCN(CC)CCCC(C)Nc1c(Sc2cnc3cc(Cl)ccc3c2NC(C)CCCN(CC)CC)cnc2cc(Cl)ccc12` (stereo not drawn), the TGI was determined as 3.31 µM in the assay on A498 renal; 3.65 µM in the assay on HT29 colon; 3.79 µM in the assay with KM12 colon; 3.22 µM in the assay on OVCAR-4 ovarian; 3.15 µM in the assay on OVCAR-8 ovarian; 3.83 µM in the assay with SF-268 CNS. Moreover, the TGI with TK-10 renal amounted to 3.24 µM; in the assay with U251 CNS, 2.99 µM; in the assay on UACC-62 melanoma, 3.13 µM.
